The source of these data is patent US12350270B2, “Antimalarial agents” (Merck Sharp & Dohme LLC, priority 2019, dated 2025).

pEC50: −log10 of the molar value.

The first assay has as its system parasites (ring stage, in human red blood cell culture). Kind of assay: Parasite LDH growth assay (antiparasite potency, Parasite Assay). The format is cell-based, Plasmodium falciparum. Conditions: 0.7% rings, 2% haematocrit, 72 hours at 37° C., LDH readout of parasite growth. The essentials:
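Ring-stage parasites at 0.7% parasitemia and 2% haematocrit, in RPMI-Hepes/bicarbonate with 5% heat-inactivated human serum and 0.5% albumax, were added to compound-containing medium. Cultures grew 72 h at 37 °C in gassed humidified boxes. Plates were then frozen overnight at −80 °C, thawed 4 h, and growth was measured by LDH assay.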
Regarding `CCC1(CC)CC(=O)N([C@@H]2CCOc3ccc(C(=O)NC4c5ccc(OC)cc5OCC4(C)O)cc32)C(=N)N1` (single isomer, unassigned) [Example 258A], the pEC50 was 7.07. As to `CCC1C[C@@H](N2C(=N)NC(CC)(CC)CC2=O)c2cc(C(=O)NC3c4ccccc4OC(C)(C)C3O)ccc2O1` (single isomer, unassigned) [Example 13A], the pEC50 was 9.10. The same measure, in the same setting: to `CCC1(CC)CC(=O)N([C@@H]2CC(C)(C)Oc3ccc(C(=O)N[C@@H]4c5ccccc5CC4(C)O)cc32)C(=N)N1` (single isomer, unassigned) [Example 42B] belongs 8.49; to “(4R)-4-(4,4-diethyl-2-imino-6- oxo-hexahydropyrimidin-1- yl)-N-[2-(hydroxymethyl)- methyl-3H-benzofuran-3- yl]chromane-6-carboxamide [Example 176B]”, 8.11. Still for that read-out and setting: to `COCC1(C)Oc2ccc(C(=O)N[C@H]3CC(C)(C)Oc4ccccc43)cc2C1N1C(=N)NC(C)(C)CC1=O` (single isomer, unassigned) [Example 214B] belongs 6.59; to `CC(C)[C@]1(C)CC(=O)N([C@@H]2CC(C)(C)Oc3ccc(C(=O)N[C@@H]4c5ccccc5CC4(C)O)cc32)C(=N)N1` (single isomer, unassigned) [Example 43B], 7.68; to `CC[C@]1(C)CC(=O)N(C2CC(C)Oc3ccc(C(=O)N[C@@H]4c5ccccc5OC[C@@]4(C)O)cc32)C(=N)N1` (single isomer, unassigned) [Example 181A], 6.72.

`CCC1(CC)CC(=O)N([C@@H]2CCOc3ccc(C(=O)NC4c5c(OC)cccc5OCC4(C)O)cc32)C(=N)N1` (single isomer, unassigned) [Example 259B] showed a pEC50 of 7.62.

The assay is the same for the next values; noted with them: Plasmodium falciparum, Erythrocyte, 72 h, 0.7% rings, 2% haematocrit, 72 hours at 37° C., LDH readout of parasite growth.
In turn, `CCC1(CC)CC(=O)N([C@H]2c3cc(C(=O)N[C@H]4c5ccccc5CC[C@@H]4O)ccc3O[C@@]2(C)COC)C(=N)N1` [Example 250, (2R,3S)-3-(4,4-diethyl-2-imino-6-oxo-hexahydropyrimidin-1-yl)-N-[(1S,2S)-2-hydroxytetralin-1-yl]-2-(methoxymethyl)-2-methyl-3H-benzofuran-5-carboxamide] gave a pEC50 of 6.66. Same read-out and setting: to `CC1(C)CC(=O)N([C@H]2c3cc(C(=O)N[C@@H]4c5ccccc5C[C@H]4O)ccc3CC2(C)C)C(=N)N1` [Example 87, N-[(1R,2R)-2-hydroxyindan-1-yl]-3-(2-imino-4,4-dimethyl-6-oxo-hexahydropyrimidin-1-yl)-2,2-dimethyl-indane-5-carboxamide] belongs 6.98. Still for that read-out and setting: the result for `CC(C)[C@]1(C)CC(=O)N([C@@H]2CC(C)(C)Oc3ccc(C(=O)N[C@@H]4c5cc(F)ccc5OC(C)(C)[C@H]4O)cc32)C(=N)N1` [Example 41A, (R)-N-((3 S,4R)-6-fluoro-3-hydroxy-2,2-dimethylchroman-4-yl)-4-((S)-2-imino-4-isopropyl-4-methyl-6-oxotetrahydropyrimidin-1(2H)-yl)-2,2-dimethylchromane-6-carboxamide] reads 8.55; that for `CCC1(CC)CC(=O)N(C2c3cc(C(=O)N[C@@H]4c5ccccc5OC[C@@]4(C)O)ccc3OC2(COC)COC)C(=N)N1` (stereo partly drawn) [Example 305, 3-(4,4-diethyl-2-imino-6-oxo-hexahydropyrimidin-l-yl)-N-[(3S,4R)-3-hydroxy-3-methyl-chroman-4-yl]-2,2-bis(methoxymethyl)-3H-benzofuran-5-carboxamide], 7.12.

Molecule `CCC1(CC)CC(=O)N([C@@H]2CCOc3ccc(C(=O)N[C@@H]4CC(C)(C)Oc5ccccc54)nc32)C(=N)N1` [Example 31A, (R)-4-(4,4-diethyl-2-imino-6-oxotetrahydropyrimidin-1(2H)-yl)-N-((R)-2,2-dimethylchroman-4-yl)-3,4-dihydro-2H-pyrano[3,2-b]pyridine-6-carboxamide] gave a pEC50 of 7.66. Molecule `CC(C)[C@]1(C)CC(=O)N([C@@H]2CCOc3ccc(C(=O)NC4c5ccccc5OC(C)(C)C4O)cc32)C(=N)N1` (single isomer, unassigned) [Example 11A] gave a pEC50 of 9.05. Regarding `CCC1(CC)CC(=O)N([C@@H]2C[C@@H](CCCCCCNC(=O)OC(C)(C)C)Oc3ccc(C(=O)N[C@H]4CC(C)(C)Oc5ccccc54)cc32)C(=N)N1` [Example 311, tert-butyl N-[6-[(2R,4R)-4-(4,4-diethyl-2-imino-6-oxo-hexahydropyrimidin-1-yl)-6-[[(4S)-2,2-dimethylchroman-4-yl]carbamoyl]chroman-2-yl]hexyl]carbamate], the pEC50 was 8.62. Same read-out and setting: the result for `CCC1(CC)CC(=O)N([C@@H]2CC(C)(C)Oc3ccc(C(=O)N[C@H]4CCOc5ccccc54)cc32)C(=N)N1` [Example 33A, (R)-N-((S)-chroman-4-yl)-4-(4,4-diethyl-2-imino-6-oxotetrahydropyrimidin-1(2H)-yl)-2,2-dimethylchromane-6-carboxamide] reads 7.55; that for `CCC1(CC)CC(=O)N(C2c3cc(C(=O)N[C@@H]4c5ccccc5C[C@@]4(C)O)ccc3OCC2OC)C(=N)N1` (stereo partly drawn) [Example 212, 4-(4,4-diethyl-2-imino-6-oxo-hexahydropyrimidin-1-yl)-N-[(1R,2R)-2-hydroxy-2-methyl-indan-1-yl]-3-methoxy-chromane-6-carboxamide], 8.19.

`COC1COc2ccc(C(=O)N[C@@H]3c4ccccc4C[C@]3(C)O)cc2C1N1C(=N)NC(C)(C)CC1=O` (stereo partly drawn) [Example 142, N-[(1R,2S)-2-hydroxy-2-methyl-indan-1-yl]-4-(2-imino-4,4-dimethyl-6-oxo-hexahydropyrimidin-1-yl)-3-methoxy-chromane-6-carboxamide] gave a pEC50 of 7.01. On the same count and under the same terms, to `COCC1(C)Oc2ccc(C(=O)N[C@@H]3c4ccccc4C[C@H]3O)cc2C1N1C(=N)NC(C)(C)CC1=O` (stereo partly drawn) [Example 146, N-[(1R,2R)-2-hydroxyindan-1-yl]-3-(2-imino-4,4-dimethyl-6-oxo-hexahydropyrimidin-1-yl)-2-(methoxymethyl)-2-methyl-3H-benzofuran-5-carboxamide] belongs 7.45; to `CCC1(CC)CC(=O)N([C@H]2c3cc(C(=O)N[C@@H]4c5ccccc5OC(C)(C)[C@H]4O)ccc3OC[C@]2(C)OC)C(=N)N1` [Example 296, (3R,4S)-4-(4,4-diethyl-2-imino-6-oxo-hexahydropyrimidin-1-yl)-N-[(3S,4R)-3-hydroxy-2,2-dimethyl-chroman-4-yl]-3-methoxy-3-methyl-chromane-6-carboxamide], 9.52. The same measure, in the same setting: the result for `CCC1(CC)CC(=O)N([C@@H]2C[C@@H](C)Oc3ccc(C(=O)N[C@@H]4c5ccccc5C[C@@]4(C)O)cc32)C(=N)N1` [Example 164, (2R,4R)-4-(4,4-diethyl-2-imino-6-oxo-hexahydropyrimidin-1-yl)-N-[(1R,2R)-2-hydroxy-2-methyl-indan-1-yl]-2-methyl-chromane-6-carboxamide] reads 8.62.

In turn, `CC[C@]1(C)CC(=O)N([C@@H]2CCOc3ccc(C(=O)N[C@@H]4C[C@H](COC(F)F)Oc5ccccc54)cc32)C(=N)N1` [Example 268, (4R)-N-[(2R,4R)-2-(difluoromethoxymethyl)chro-man-4-yl]-4-[(4R)-4-ethyl-2-imino-4-methyl-6-oxo-hexahydropyrimidin-1-yl]chromane-6-carboxamide] showed a pEC50 of 7.60. On the same count and under the same terms, to `CCC1(CC)CC(=O)N([C@@H]2C[C@@H](C)Oc3ccc(C(=O)N[C@@H]4c5ccccc5C[C@H]4O)cc32)C(=N)N1` [Example 128, (2R,4R)-4-(4,4-diethyl-2-imino-6-oxo-hexahydropyrimidin-1-yl)-N-[(1R,2R)-2-hydroxyindan-1-yl]-2-methyl-chromane-6-carboxamide] belongs 8.55; to `CCC1(CC)CC(=O)N([C@@H]2CCOc3ccc(C(=O)N[C@H]4c5ccccc5C5(CC5)[C@@H]4O)cc32)C(=N)N1` [Example 155, (4R)-4-(4,4-diethyl-2-imino-6-oxo-hexahydropyrimidin-1-yl)-N-[(1′S,2′S)-2′-hydroxyspiro[cyclopropane-1,3′-indane]-1′-yl]chromane-6-carboxamide], 7.08.

`CO[C@@H]1COc2ccccc2[C@H]1NC(=O)c1ccc2c(c1)[C@H](N1C(=N)NC(C)(C)CC1=O)CCO2` [Example 109, (4R)-4-(2-imino-4,4-dimethyl-6-oxo-hexahydropyrimidin-1-yl)-N-[(3S,4R)-3-methoxychroman-4-yl]chromane-6-carboxamide] showed a pEC50 of 7.85. Same read-out and setting: to `CCC1(CC)CC(=O)N([C@@H]2CCOc3ccc(C(=O)N[C@H]4c5cc(F)ccc5OC[C@@H]4O)cc32)C(=N)N1` [Example 192, (4R)-4-(4,4-diethyl-2-imino-6-oxo-hexahydropyrimidin-1-yl)-N-[(3R,4S)-6-fluoro-3-hydroxy-chroman-4-yl]chromane-6-carboxamide] belongs 6.63; to `CCC1(CC)CC(=O)N([C@@H]2CCOc3ccc(C(=O)N[C@@H]4c5cc(Cl)ccc5OC[C@H]4O)cc32)C(=N)N1` [Example 231, (4R)-N-[(3S,4R)-6-chloro-3-hydroxy-chroman-4-yl]-4-(4,4-diethyl-2-imino-6-oxo-hexahydropyrimidin-1-yl)chromane-6-carboxamide], 8.13. Same read-out and setting: the result for `CCC1(CC)CC(=O)N([C@H]2c3cc(C(=O)N[C@@H]4c5ccccc5OC(C)(C)[C@H]4O)ccc3OC2(C)C)C(=N)N1` [Example 245, (3S)-3-(4,4-diethyl-2-imino-6-oxo-hexahydropyrimidin-1-yl)-N-[(3S,4R)-3-hydroxy-2,2-dimethyl-chroman-4-yl]-2,2-dimethyl-3H-benzofuran-5-carboxamide] reads 9.10. Same read-out and setting: the result for `CCC1(CC)CC(=O)N([C@H]2C[C@@H](OC)c3ccc(C(=O)N[C@@H]4c5ccccc5OC[C@@]4(C)O)cc32)C(=N)N1` [Example 204, (1R,3S)-3-(4,4-diethyl-2-imino-6-oxo-hexahydropyrimidin-1-yl)-N-[(3S,4R)-3-hydroxy-3-methyl-chroman-4-yl]-1-methoxy-indane-5-carboxamide] reads 6.61.

As a reminder, the pEC50 is the negative decadic logarithm of the EC50, by convention in mol/L. A lower pEC50 goes with a large EC50.
